We go through one compound from US20250215030A1, “STAT MODULATORS AND USES THEREOF” (Recludix Pharma, Inc., priority 2022, published 2025).

Bounds are passed on as bounds.

One assay addresses T1, pSTAT6 (pY641-STAT6) (Homo sapiens, UniProt P42226).
T1 construct: host or cells: cryopreserved PBMC
T1 sequence (P42226 1-847): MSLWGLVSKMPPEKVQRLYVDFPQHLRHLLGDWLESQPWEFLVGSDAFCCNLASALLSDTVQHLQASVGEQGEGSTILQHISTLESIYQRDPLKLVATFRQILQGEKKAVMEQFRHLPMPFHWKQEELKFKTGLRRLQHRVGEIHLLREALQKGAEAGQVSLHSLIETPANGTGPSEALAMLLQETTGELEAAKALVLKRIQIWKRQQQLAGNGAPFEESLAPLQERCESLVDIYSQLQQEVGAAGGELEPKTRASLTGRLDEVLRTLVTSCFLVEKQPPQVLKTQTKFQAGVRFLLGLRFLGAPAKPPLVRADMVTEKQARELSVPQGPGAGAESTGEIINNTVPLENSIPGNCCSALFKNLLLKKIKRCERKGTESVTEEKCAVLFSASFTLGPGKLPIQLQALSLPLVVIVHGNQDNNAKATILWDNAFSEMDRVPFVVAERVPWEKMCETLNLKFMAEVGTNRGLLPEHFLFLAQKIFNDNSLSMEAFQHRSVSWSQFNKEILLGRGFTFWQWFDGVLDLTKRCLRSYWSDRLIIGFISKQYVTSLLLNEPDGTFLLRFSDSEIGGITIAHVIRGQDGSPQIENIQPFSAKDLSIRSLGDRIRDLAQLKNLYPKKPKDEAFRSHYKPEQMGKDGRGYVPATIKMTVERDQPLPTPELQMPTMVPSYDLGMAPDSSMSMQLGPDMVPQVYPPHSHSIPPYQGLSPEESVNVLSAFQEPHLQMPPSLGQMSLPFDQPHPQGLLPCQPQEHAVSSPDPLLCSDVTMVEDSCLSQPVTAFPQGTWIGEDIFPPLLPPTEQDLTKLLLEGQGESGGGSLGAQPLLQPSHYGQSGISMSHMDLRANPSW
In words: MSD-pSTAT-PBMC Assay (pSTAT6, IL-4 stimulated). The format is cell-based. To be noted: compound 3 hrs, then 1 ng/mL IL-4 for 10 min. The procedure, abridged:
(§1)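 Human PBMCs (50,000 cells/well for STAT3, 25,000 for STAT6) treated with compound 3 h, then stimulated 10 min with 10 ng/mL IL-6 or 1 ng/mL IL-4. Lysate pSTAT3 (pY705) or pSTAT6 (pY641) measured by MSD sandwich electrochemiluminescence. Signal minus unstimulated, normalized to DMSO; IC50 by variable-slope nonlinear regression.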

For the next assay, the target named is T2, pSTAT3 (pY705-STAT3) (Homo sapiens, UniProt P40763).
T2 construct: host or cells: cryopreserved PBMC
T2 sequence (P40763 whole entry): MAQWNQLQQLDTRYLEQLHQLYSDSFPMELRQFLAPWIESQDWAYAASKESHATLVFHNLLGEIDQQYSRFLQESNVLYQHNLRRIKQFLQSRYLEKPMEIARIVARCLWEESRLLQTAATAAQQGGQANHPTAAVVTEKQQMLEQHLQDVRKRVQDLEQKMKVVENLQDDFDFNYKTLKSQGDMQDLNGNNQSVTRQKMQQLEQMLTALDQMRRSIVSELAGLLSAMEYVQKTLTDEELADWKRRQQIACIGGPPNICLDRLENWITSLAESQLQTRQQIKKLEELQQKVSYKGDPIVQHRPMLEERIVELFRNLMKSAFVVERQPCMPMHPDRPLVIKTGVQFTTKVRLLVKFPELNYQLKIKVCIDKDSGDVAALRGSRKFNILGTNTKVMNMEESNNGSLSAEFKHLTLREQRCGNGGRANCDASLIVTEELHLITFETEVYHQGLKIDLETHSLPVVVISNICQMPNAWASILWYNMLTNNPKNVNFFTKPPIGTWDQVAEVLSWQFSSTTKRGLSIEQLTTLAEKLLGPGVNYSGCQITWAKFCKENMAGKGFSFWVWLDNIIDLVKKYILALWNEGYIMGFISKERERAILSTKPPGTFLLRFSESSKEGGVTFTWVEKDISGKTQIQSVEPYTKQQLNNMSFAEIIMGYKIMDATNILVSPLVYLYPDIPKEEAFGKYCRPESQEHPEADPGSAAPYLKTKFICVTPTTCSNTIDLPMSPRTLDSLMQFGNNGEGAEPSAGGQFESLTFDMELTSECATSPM
In words: MSD-pSTAT-PBMC Assay (pSTAT3, IL-6 stimulated). The format is cell-based. The following applies: PBMC, compound 3 hrs, then 10 ng/mL IL-6 for 10 min; MSD pY705-STAT3; read-out: pSTAT3. The procedure, abridged:
as §1

As to `CC(C)(C)C(=O)SCCOP(=O)(OCCSC(=O)C(C)(C)C)C(F)(F)c1ccc2sc(C(=O)N[C@H]3C[C@@H]4C[C@@H]4C[C@H]4CC[C@@H](C(=O)N5CC(n6ccnc6)C5)N4C3=O)cc2c1` [Compound 181, S,S′-(((((2-(((3S,6S,7aS, 8aR,9aR)-3-(3-(1H-imidazol-1-yl)azetidine-1-carbonyl)-5-oxodecahydro-1H-cyclopropa[d]pyrrolo[1,2-a]azocin-6-yl)carbamoyl)benzo[b]thiophen-5-yl)difluoromethyl)phosphoryl)bis(oxy))bis(ethane-2,1-diyl)) bis(2,2-dimethyl-propanethioate)], the IC50 against pSTAT6 (pY641-STAT6) is over 3 µM; at pSTAT3 (pY705-STAT3) it was under 0.1 µM.
